Assay results: ChEMBL document CHEMBL1149935, “17-hydroxywortmannin: A potent inhibitor of bone resorption and phosphatidylinositol-3-kinase” (Bioorg Med Chem Lett, 1995)

Experiments:
[1] = Inhibition of bovine Phosphatidylinositol 3-kinase; design: species or system Bos taurus
Gallus gallus = species: Gallus gallus; assay: Compound was evaluated for inhibitory activity against bone resorption in avian osteoclast

In the case of `COC[C@H]1OC(=O)c2coc3c2[C@@]1(C)C1=C(C3=O)[C@@H]2CCC(=O)[C@@]2(C)CC1`, the IC50 [1] is reported as 0.0167 µM and the IC50 (Gallus gallus) is reported as 0.506 µM.

For `NCCCC(O)(P(=O)(O)O)P(=O)(O)O` [ALENDRONIC ACID], the IC50 [1] was > 50 µM and the IC50 (Gallus gallus) was 0.1 µM.

`COC[C@H]1OC(=O)c2coc3c2[C@@]1(C)C1=C(C3=O)C2CCC(O)[C@@]2(C)CC1` (stereo partly drawn) showed an IC50 (Gallus gallus) of 0.103 µM.

In the case of `COC[C@H]1OC(=O)c2coc3c2[C@@]1(C)C1=C(C3=O)[C@@H]2CC[C@H](O)[C@@]2(C)C[C@H]1OC(C)=O`, the IC50 [1] is reported as 0.0005 µM and the IC50 (Gallus gallus) is reported as 0.01 µM.

For `COC[C@H]1OC(=O)c2coc3c2[C@@]1(C)C1=CC[C@]2(C)C(=O)CC[C@H]2C1C3=O` (stereo partly drawn), the IC50 [1] was 0.054 µM.

With `COC[C@H]1OC(=O)c2c(C)oc3c2[C@@]1(C)C1=C(C3=O)[C@@H]2CCC(=O)[C@@]2(C)C[C@H]1OC(C)=O` the IC50 [1] was > 0.5 µM and the IC50 (Gallus gallus) was > 1 µM.

For `COC(=O)c1coc2c(O)c3c(c(C)c12)C=C[C@]1(C)C(=O)CC[C@@H]31`, the IC50 [1] was 4.6 µM and the IC50 (Gallus gallus) was > 1 µM.

For `CC(O)(P(=O)(O)O)P(=O)(O)O` [ETIDRONIC ACID], the IC50 [1] was > 50 µM and the IC50 (Gallus gallus) was 100 µM.

With `Cc1c2c(c(O)c3occ(C(=O)O)c13)C1CCC(=O)[C@@]1(C)C=C2` (stereo partly drawn) the IC50 [1] was > 32 µM and the IC50 (Gallus gallus) was > 1 µM.

For `COC[C@H]1OC(=O)c2coc3c2[C@@]1(C)C1=C(C3=O)[C@@H]2CCC(=O)[C@@]2(C)C[C@H]1OC(C)=O` [WORTMANNIN], the IC50 [1] was 0.0042 µM and the IC50 (Gallus gallus) was 0.098 µM.
